Reference: ChEMBL document CHEMBL3507680, “University of Dundee, Gates Library screen for HepG2 cell viability”

Experiment: Human HepG2 cell viability assay in 384 well format
Assay type: toxicity, cell-based
Set-up: dose 125 nL, time 70.5 hour; cytotoxicity at 70.5 h: concentration not given beside the values
Details: HepG2 cells, read-out: Inhibition

`COCCN1CCC(CNC(=O)C2(C#N)CCCCC2)CC1` gave a cytotoxicity at 70.5 h of -8.47%.
Work on `CN1CCCC1CNC(=O)CCOc1ccc(Br)cc1` (configuration not stated) yielded a cytotoxicity at 70.5 h of 2.76%.
In the case of `c1cc(-c2ccc(CN3CCCC4(CCNC4)C3)s2)[nH]n1` (configuration not stated), the cytotoxicity at 70.5 h is reported as 1.71%.
With `Cc1cnc(N2C[C@@H]3CN(Cc4ccco4)CCC[C@]3(C(=O)O)C2)nc1` the cytotoxicity at 70.5 h was -5.9%.
Work on `CCN(CC(C)O)C(=O)Nc1cnn(CCOC)c1` (configuration not stated) yielded a cytotoxicity at 70.5 h of 6.07%.
In the case of `Cc1cc(CN2C[C@@H]3COC[C@]3(COCC(=O)N(C)C)C2)no1`, the cytotoxicity at 70.5 h is reported as -4.13%.
For `Cc1nc(CN2CCCN(Cc3nc4ccccc4o3)CC2)no1`, the cytotoxicity at 70.5 h was -8.61%.
`CC(=O)NCC(=O)N1Cc2ccnn2CC(COCCN(C)C)C1` (configuration not stated) showed a cytotoxicity at 70.5 h of -6.24%.
Compound `O=C(CCOc1ccccc1)NS(=O)(=O)Cc1ccccc1` has a cytotoxicity at 70.5 h of -5.31%.
In the case of `COC[C@@]12CC[C@@H](N3CCOCC3)C[C@H]1CCN(c1cc(C)ccn1)C2`, the cytotoxicity at 70.5 h is reported as -1.61%.
`CNC(=O)C(NC(=O)CCc1cccc(OC2CCCC2)c1)C(C)C` (configuration not stated) gave a cytotoxicity at 70.5 h of 6.19%.
`COc1ccc(F)c(CN2CCC3(CCC(=O)N(CC(N)=O)C3)CC2)c1` gave a cytotoxicity at 70.5 h of 5.8%.
In the case of `O=C(c1ccnc(N2CCOC(C(F)(F)F)C2)c1)N1CCOCC1` (configuration not stated), the cytotoxicity at 70.5 h is reported as -19.7%.
With `CN(C)c1cc(CNCc2ccc(N3CCOCC3)cc2)ccn1` the cytotoxicity at 70.5 h was -6.16%.
`O=C1C(CS(=O)(=O)Nc2ccc(Br)cc2)=NC(=O)n2cccc21` gave a cytotoxicity at 70.5 h of 2.35%.
Compound `CC(NC(=O)NCc1ccccc1Cl)c1ccccn1` (configuration not stated) has a cytotoxicity at 70.5 h of 19.4%.
In the case of `CC(Cn1cccn1)NCc1cnc(N2CCCC2)nc1` (configuration not stated), the cytotoxicity at 70.5 h is reported as -3.66%.
In the case of `CN(C)CC(=O)N1CCCC1c1ccccn1` (configuration not stated), the cytotoxicity at 70.5 h is reported as -3.81%.
Work on `Cc1noc(C)c1CN1CCOC2(CCCN(c3nncs3)C2)C1` (configuration not stated) yielded a cytotoxicity at 70.5 h of -4.97%.
`O=S(=O)(c1cncc(F)c1)N1CCC2(CCCCC2)C1` showed a cytotoxicity at 70.5 h of -13%.
In the case of `Cn1cc(C(=O)N[C@@H]2CN(CC3CCOCC3)[C@@H]3CCCO[C@@H]32)cn1`, the cytotoxicity at 70.5 h is reported as -7.22%.
Work on `Cn1cnc2c1CCN(Cc1nc(COc3ccc(F)cc3)no1)C2` yielded a cytotoxicity at 70.5 h of 10.6%.
For `O=C(O)C1(Oc2cccc(F)c2)CCN(C2CCOCC2)CC1`, the cytotoxicity at 70.5 h was -6.65%.
With `O=C([C@@H]1CCO[C@@H]2CCN(Cc3ccsc3)C[C@@H]21)N1CCCC1` the cytotoxicity at 70.5 h was -16.1%.
Work on `CC(C)Cc1nc(CN2CCOC(Cn3cncn3)C2)no1` (configuration not stated) yielded a cytotoxicity at 70.5 h of -8.48%.
`COCc1nc(CNc2cccc(-c3ncon3)c2)cs1` showed a cytotoxicity at 70.5 h of 29.2%.
Compound `Cc1ccc(CN2CCC3(CC2)NC(=O)CC3c2ccncc2)cc1C` (configuration not stated) has a cytotoxicity at 70.5 h of -3.31%.
Compound `O=C(CNc1cc2c(cc1Br)OCCO2)NC1CCS(=O)(=O)C1` (configuration not stated) has a cytotoxicity at 70.5 h of -2.07%.
Work on `CC(C)c1nc2c(n1C)CCN(CC(=O)Nc1ccncc1)C2` yielded a cytotoxicity at 70.5 h of -7.84%.
With `O=C(c1ccccc1OC1CCCC1)N1CCCC(n2cncn2)C1` (configuration not stated) the cytotoxicity at 70.5 h was -9.06%.
`CS(=O)(=O)NCc1cc2n(n1)CCCN(Cc1nc3ccccc3[nH]1)C2` gave a cytotoxicity at 70.5 h of -8.44%.
In the case of `COc1cc(NC(=O)N(C)Cc2ccc(Br)o2)ncn1`, the cytotoxicity at 70.5 h is reported as -8.49%.
`Cc1c(C(=O)N2CCCN(S(C)(=O)=O)CC2)cnn1C` gave a cytotoxicity at 70.5 h of -3.33%.
Compound `CCc1nnc2n1CCN(CCC(=O)Nc1sccc1C#N)C2` has a cytotoxicity at 70.5 h of -3.22%.
With `Cc1nn2c(N3CCC(O)CC3)cc(-c3ccccc3)nc2c1C` the cytotoxicity at 70.5 h was -3.29%.
Work on `CCOCCCn1c(NC(=O)c2ccc(C)nc2)nc2ccccc21` yielded a cytotoxicity at 70.5 h of -5.03%.
In the case of `CN(C)CCN1CC(C(=O)N2CCC(c3nccn3C)CC2)CC1=O` (configuration not stated), the cytotoxicity at 70.5 h is reported as 6.94%.
Work on `CCc1nc(C2CCCN2C(=O)c2ccoc2C)no1` (configuration not stated) yielded a cytotoxicity at 70.5 h of -9.91%.
`O=C(CCN1CCCO1)N1CC[C@@H](CNC(=O)N2CCCC2)[C@H](O)C1` showed a cytotoxicity at 70.5 h of 14%.
Compound `CN1CCc2nc3c(c(N)c2C1)CCCN3C` has a cytotoxicity at 70.5 h of -16.1%.
Compound `CC(C)c1nc(C2CCCN(C(=O)CCn3ccccc3=O)C2)no1` (configuration not stated) has a cytotoxicity at 70.5 h of 22.5%.
`CN(CCO)Cc1nnc(C2CCN(C(=O)C(C)(C)C)CC2)n1C` gave a cytotoxicity at 70.5 h of -4.92%.
For `Cn1c2c(c(=O)n1C)CN(C(=O)c1cnccn1)CCC2`, the cytotoxicity at 70.5 h was -8.23%.
In the case of `Cc1nnc2n1CCN(Cc1nc3ccccc3o1)C2`, the cytotoxicity at 70.5 h is reported as -3.32%.
For `Cc1nc2oc(C(=O)N3CCOCC3)c(N)c2c2c1CCCC2`, the cytotoxicity at 70.5 h was -17.3%.
With `O=C1NCCCCC1NCc1csc(-c2ccsc2)n1` (configuration not stated) the cytotoxicity at 70.5 h was 7.38%.
`Cc1cc(C(=O)NC2CCCN(c3ccccc3)C2=O)on1` (configuration not stated) showed a cytotoxicity at 70.5 h of 0.654%.
`CCN(CC)Cc1nc2c(o1)CN(C(=O)c1ccncc1F)C2` gave a cytotoxicity at 70.5 h of -4.3%.
With `CN1CCC(c2n[nH]c(=O)n2-c2cccc(Cl)c2)CC1` the cytotoxicity at 70.5 h was 10.8%.
`Cn1c(CN2CCCC2)nnc1C1CCCN(C(=O)N2CCOCC2)C1` (configuration not stated) showed a cytotoxicity at 70.5 h of -3.17%.
In the case of `COc1ccc(CN2CC(O)CN(C(=O)c3ccccc3)CC2=O)cc1` (configuration not stated), the cytotoxicity at 70.5 h is reported as 7.16%.
Compound `c1coc(CN2CCO[C@H]3[C@H](OCC4CCCC4)CC[C@@H]32)c1` has a cytotoxicity at 70.5 h of 11.8%.
`CC(C)(C)C(NC(=O)CCS(C)(=O)=O)c1ccc(F)cc1F` (configuration not stated) showed a cytotoxicity at 70.5 h of -6.93%.
Work on `CC(C)(C)C(=O)N1CC[C@H]2NC(=O)N(c3ccc(F)cc3)C(=O)[C@H]21` yielded a cytotoxicity at 70.5 h of -4.77%.
In the case of `CCc1nnc(CN(CC)C(=O)C2CC(=O)N(C3CC3)C2)o1` (configuration not stated), the cytotoxicity at 70.5 h is reported as -3.34%.
For `COc1cccc(CNCCNS(=O)(=O)Cc2ccccc2)c1`, the cytotoxicity at 70.5 h was -6.4%.
In the case of `O=C1NC2(Cc3ccccc31)CN(CC1CCNCC1)C2`, the cytotoxicity at 70.5 h is reported as 12.6%.
